Results: paper PMC10388202, “Single amino acid–based PROTACs trigger degradation of the oncogenic kinase BCR–ABL in chronic myeloid leukemia (CML)” (The Journal of Biological Chemistry, 2023)
Several values for one entry are separate records, joined by “and”; a condition that tells them apart may be missing. Equal entries are not always repeated. Entries after “also recorded” stand apart in the source; their conditions may differ. Where two headings read alike, the source gives them in different places. Peptide text beside a SMILES is read from it. * marks the point of attachment. Cbz = O=C(OCc1ccccc1)*

Columns and labels:
[1] = biological target: T1, BCR–ABL (Homo sapiens, UniProt P00519+P11274); test: BCR–ABL protein in K562 xenograft tumors (immunohistochemistry, immunoblot); conditions: nude mice, 10 mg/kg i.p. every other day, 10 doses, IHC and immunoblot
T1 sequence (P11274+P00519 fused): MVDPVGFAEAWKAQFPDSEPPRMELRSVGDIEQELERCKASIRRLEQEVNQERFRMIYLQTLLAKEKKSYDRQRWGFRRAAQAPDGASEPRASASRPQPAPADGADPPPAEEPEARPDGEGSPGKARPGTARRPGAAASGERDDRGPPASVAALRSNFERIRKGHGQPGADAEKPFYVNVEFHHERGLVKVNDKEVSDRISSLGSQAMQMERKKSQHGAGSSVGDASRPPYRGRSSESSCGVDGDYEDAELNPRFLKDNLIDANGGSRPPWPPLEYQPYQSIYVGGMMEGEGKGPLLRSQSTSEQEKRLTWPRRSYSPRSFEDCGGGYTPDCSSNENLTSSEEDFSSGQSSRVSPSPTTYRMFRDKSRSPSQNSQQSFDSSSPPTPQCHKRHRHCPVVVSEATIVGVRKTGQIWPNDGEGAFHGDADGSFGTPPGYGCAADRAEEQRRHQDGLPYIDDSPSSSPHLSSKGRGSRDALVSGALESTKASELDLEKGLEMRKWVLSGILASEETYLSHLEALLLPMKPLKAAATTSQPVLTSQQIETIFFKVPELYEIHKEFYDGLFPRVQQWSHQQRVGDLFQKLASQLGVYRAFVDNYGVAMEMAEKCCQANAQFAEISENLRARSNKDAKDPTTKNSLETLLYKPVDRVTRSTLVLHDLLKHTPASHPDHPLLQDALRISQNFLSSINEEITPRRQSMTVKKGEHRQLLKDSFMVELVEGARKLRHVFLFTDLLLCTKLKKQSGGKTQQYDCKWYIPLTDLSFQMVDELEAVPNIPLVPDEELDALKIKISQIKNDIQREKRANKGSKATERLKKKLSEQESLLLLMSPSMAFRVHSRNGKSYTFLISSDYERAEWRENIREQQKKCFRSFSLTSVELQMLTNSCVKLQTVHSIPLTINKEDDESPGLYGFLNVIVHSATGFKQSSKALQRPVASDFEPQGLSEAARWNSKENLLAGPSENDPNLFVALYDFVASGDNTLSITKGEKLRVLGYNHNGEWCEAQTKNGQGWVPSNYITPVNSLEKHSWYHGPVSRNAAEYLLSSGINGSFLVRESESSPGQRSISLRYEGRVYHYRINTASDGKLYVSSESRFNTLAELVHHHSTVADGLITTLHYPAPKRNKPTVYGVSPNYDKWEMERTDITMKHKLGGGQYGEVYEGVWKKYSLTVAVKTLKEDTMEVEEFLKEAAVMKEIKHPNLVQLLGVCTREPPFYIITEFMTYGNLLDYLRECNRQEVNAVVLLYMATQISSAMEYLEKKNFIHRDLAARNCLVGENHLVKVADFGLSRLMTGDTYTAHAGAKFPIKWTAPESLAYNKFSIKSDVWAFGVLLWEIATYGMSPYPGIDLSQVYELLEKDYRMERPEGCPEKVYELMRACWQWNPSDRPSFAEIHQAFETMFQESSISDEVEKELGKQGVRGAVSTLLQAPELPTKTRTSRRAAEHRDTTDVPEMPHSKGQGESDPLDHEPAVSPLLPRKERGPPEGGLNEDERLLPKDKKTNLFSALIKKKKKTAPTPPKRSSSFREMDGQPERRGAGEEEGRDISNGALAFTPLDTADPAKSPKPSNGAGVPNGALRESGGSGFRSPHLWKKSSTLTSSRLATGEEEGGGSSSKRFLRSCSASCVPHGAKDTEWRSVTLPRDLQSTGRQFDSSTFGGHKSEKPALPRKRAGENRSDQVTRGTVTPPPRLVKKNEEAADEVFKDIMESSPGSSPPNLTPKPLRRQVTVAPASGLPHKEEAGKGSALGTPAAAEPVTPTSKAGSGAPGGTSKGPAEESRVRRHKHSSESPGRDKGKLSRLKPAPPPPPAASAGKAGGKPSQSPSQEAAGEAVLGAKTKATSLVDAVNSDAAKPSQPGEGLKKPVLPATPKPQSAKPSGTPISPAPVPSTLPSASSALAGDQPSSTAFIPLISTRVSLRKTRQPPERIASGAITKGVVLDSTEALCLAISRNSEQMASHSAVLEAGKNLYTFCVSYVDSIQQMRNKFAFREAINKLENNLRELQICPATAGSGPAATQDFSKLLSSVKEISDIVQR
Description: To evaluate the effects of the N-end rule–based PROTAC on tumor growth in vivo, we set up a K562 CML xenograft mouse model. K562 cells were subcutaneously implanted into the right flank of female nude mice. […] Tumor volumes were measured at indicated time with calipers. When sacrificed on day 27, the tumors were harvested and photographed (Fig. 6A).
Cells were collected and lysed in radioimmunoprecipitation assay buffer (50 mM Tris–HCl [pH 8.0], 1% NP-40, 150 mM NaCl, 0.1% SDS, 0.5% sodium deoxycholate, and 1× complete protease inhibitor cocktail) on ice for 20 min and centrifuged at 15,000 rpm for 10 min at 4 °C to collect the supernatant. After protein concentrations were measured by the bicinchoninic acid protein assay kit (Thermo Scientific), samples with equal amounts of proteins were mixed with loading buffer and denatured by boiling. Protein lysates were resolved by SDS-PAGE and transferred to polyvinylidene fluoride membranes. Then, the membranes were blocked in 5% nonfat milk for 1 h at room temperature, incubated with a primary antibody overnight at 4 °C, and then incubated with horseradish peroxidase–conjugated secondary antibodies for 1 h at room temperature. Subsequently, the membranes were probed with ECL reagent (Millipore), and proteins were visualized by a Tanon-5200 Automatic Chemiluminescence Imaging Analysis System (Tanon). […]

[2] = Body weight of mice in K562 xenograft model; format: in vivo
Description: (§1) To evaluate the effects of the N-end rule–based PROTAC on tumor growth in vivo, we set up a K562 CML xenograft mouse model. K562 cells were subcutaneously implanted into the right flank of female nude mice. When the tumors reached a palpable volume of about 50 to 80 mm^3 at day 7, the mice bearing K562 tumors were then divided into two groups randomly and administered every other day with either vehicle or Arg-PEG1-Dasa (10 mg/kg) for total 10 doses by intraperitoneal injection. Tumor volumes were measured at indicated time with calipers. When sacrificed on day 27, the tumors were harvested and photographed (Fig. 6A). The amount of BCR–ABL protein in vivo upon Arg-PEG1-Dasa treatment was examined in K562 xenograft mouse model using the immunohistochemistry (Fig. 6B) and immunoblot (Fig. 6C). […]. Further studies are needed to optimize PROTAC or administration strategy to achieve better therapeutic effects.
(§2) K562 cells (1 × 10^7 cells/200 μl) were subcutaneously injected into the right flank of 4-week-old female nude mice. […]. The drugs were subsequently administered by i.p. injection every other day with either vehicle, Arg-PEG1-Dasa, or Dasa (10 mg/kg) for total 10 doses. The growth of tumors in mice was measured with a Vernier caliper. The tumor volume was determined using the formula volume = 0.5 × (length) × (width)^2. […]

[3] = system: K562 cells; test: K562 cell growth after drug washout (CCK-8); format: cell-based, human; conditions: 1 nM 48 h, drug-free medium 1 to 4 days
Description: Figure 2 Arg-PEG (1–4)-Dasa induced the degradation of BCR–ABL through the proteasome.A, K562 cells were incubated with Arg-PEG (1–4)-Dasa bearing different numbers of PEG linker at indicated concentration for 48 h. The expression of various proteins indicated was determined by immunoblotting. B, K562 cell viability was examined using CCK-8 assays after the treatment with Arg-PEG (1–4)-Dasa for 48 h at various concentrations (0, 0.01, 0.1, 0.25, 0.5, 0.75, 1, and 2.5 nM). C, immunoblot analysis of the indicated proteins in K562 cells treated with various compounds at 1 nM for 48 h. D, immunoblot analysis of the proteins indicated in K562 cells treated with gradually increasing doses of Arg-PEG1-Dasa for 48 h. E, immunoblot analysis of the indicated proteins in K562 cells treated with DMSO, Arg-PEG1-Dasa, Dasa, or NH2-PEG1-Dasa at 1 nM for 48 h. F, immunoblot analysis of the indicated proteins in K562 cells pretreated with Dasa or NH2-PEG1-Dasa (1 nM) for 2 h followed by Arg-PEG1-Dasa treatment at 1 nM for 48 h. G and H, K562 cells were treated with indicated compounds at 1 nM for 2 days, following washout and incubation compound-free medium. G, cell growth was detected using CCK-8 assays at the indicated times. H, the protein level indicated was tested with immunoblot. […]

[4] = biological target: T2, BCR–ABL (Homo sapiens, UniProt P00519); test: BCR–ABL degradation in K562 cells (immunoblot); format: cell-based; conditions: 5 nM, 48 h, read-out: DMax (maximum degradation percentage in comparison with control) at 5 nM
T2 construct: assessed in human CML K562 cells bearing BCR–ABL; host or cells: K562
T2 sequence (P00519 whole entry, looked up): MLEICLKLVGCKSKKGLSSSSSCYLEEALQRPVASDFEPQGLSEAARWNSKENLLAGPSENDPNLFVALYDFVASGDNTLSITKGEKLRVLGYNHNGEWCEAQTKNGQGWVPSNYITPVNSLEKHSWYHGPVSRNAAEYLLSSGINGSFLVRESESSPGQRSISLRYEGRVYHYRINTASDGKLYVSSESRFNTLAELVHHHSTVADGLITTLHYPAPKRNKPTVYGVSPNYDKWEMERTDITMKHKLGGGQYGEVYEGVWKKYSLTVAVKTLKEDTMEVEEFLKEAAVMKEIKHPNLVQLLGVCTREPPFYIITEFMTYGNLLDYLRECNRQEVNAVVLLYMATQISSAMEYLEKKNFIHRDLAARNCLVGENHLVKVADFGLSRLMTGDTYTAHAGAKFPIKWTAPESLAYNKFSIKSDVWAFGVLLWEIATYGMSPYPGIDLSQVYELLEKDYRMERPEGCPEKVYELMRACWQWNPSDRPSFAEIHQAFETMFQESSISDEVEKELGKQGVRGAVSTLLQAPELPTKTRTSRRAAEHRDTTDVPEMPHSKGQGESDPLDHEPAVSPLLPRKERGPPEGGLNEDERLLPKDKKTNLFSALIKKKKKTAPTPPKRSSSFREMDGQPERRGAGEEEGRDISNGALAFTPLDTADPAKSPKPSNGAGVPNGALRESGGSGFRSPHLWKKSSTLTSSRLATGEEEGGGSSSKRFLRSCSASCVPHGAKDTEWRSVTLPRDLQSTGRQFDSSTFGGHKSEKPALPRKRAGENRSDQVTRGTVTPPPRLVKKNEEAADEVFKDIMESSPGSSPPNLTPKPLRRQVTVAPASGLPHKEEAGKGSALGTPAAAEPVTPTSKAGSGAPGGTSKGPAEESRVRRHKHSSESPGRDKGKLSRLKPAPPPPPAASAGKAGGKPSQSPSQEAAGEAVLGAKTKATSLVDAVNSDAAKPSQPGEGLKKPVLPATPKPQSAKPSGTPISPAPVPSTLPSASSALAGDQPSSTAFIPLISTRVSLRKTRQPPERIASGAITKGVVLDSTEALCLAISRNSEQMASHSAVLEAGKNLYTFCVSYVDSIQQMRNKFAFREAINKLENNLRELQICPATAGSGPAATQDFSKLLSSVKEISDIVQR
Description: (§3) The ability of Arg-PEGn-Dasa PROTACs to induce BCR–ABL degradation was assessed in human CML K562 cells bearing BCR–ABL. […] We next evaluated the impact of Arg-PEGn-Dasa on cell proliferation in K562 cells using Cell Counting Kit-8 (CCK-8) assay.
(§4) Cells were collected and lysed in radioimmunoprecipitation assay buffer (50 mM Tris–HCl [pH 8.0], 1% NP-40, 150 mM NaCl, 0.1% SDS, 0.5% sodium deoxycholate, and 1× complete protease inhibitor cocktail) on ice for 20 min and centrifuged at 15,000 rpm for 10 min at 4 °C to collect the supernatant. After protein concentrations were measured by the bicinchoninic acid protein assay kit (Thermo Scientific), samples with equal amounts of proteins were mixed with loading buffer and denatured by boiling. Protein lysates were resolved by SDS-PAGE and transferred to polyvinylidene fluoride membranes. Then, the membranes were blocked in 5% nonfat milk for 1 h at room temperature, incubated with a primary antibody overnight at 4 °C, and then incubated with horseradish peroxidase–conjugated secondary antibodies for 1 h at room temperature. Subsequently, the membranes were probed with ECL reagent (Millipore), and proteins were visualized by a Tanon-5200 Automatic Chemiluminescence Imaging Analysis System (Tanon).

[5] = biological target: T1, BCR–ABL; test: BCR–ABL degradation in K562 cells (immunoblot); format: cell-based; design: assessed in human CML K562 cells bearing BCR–ABL; host or cells: K562; conditions: for time at which BCR–ABL reduction appears: 1 nM; for DC50: immunoblot, read-out: DC50 (drug concentration that degrades 50% protein)
Description: as §3, §4

[6] = system: K562 xenograft; test: K562 CML xenograft mouse model, tumor growth; format: in vivo; conditions: nude mice, 10 mg/kg i.p. every other day, 10 doses, day 27
Description: as §1, §2

[7] = system: K562 cells; test: K562 cell viability, CCK-8 assay; format: cell-based; conditions: Homo sapiens, 48 h, read-out: IC50 (half maximal inhibitory concentration), K562 proliferation
Description: K562 cells (5 × 10^3 cells per well) were grown in 96-well plates with 100 μl medium. After the treatment with the PROTACs at various concentrations (0, 0.01, 0.1, 0.25, 0.5, 0.75, 1, and 2.5 nM) for 48 h, CCK-8 solution was added to each well and incubated for 2 h at 37 °C, and the number of viable cells was determined by measuring the absorbance of the converted dye at a 450 nm wavelength, according to the manufacturer’s instructions (Yeasen). Each experiment was performed at least three times independently.

[8] = system: pSTAT5; test: STAT5 phosphorylation after drug washout (immunoblot); format: cell-based, human; conditions: K562 cells, 1 nM 2 days, compound-free medium
Description: For controls, we also examined the activity of the PROTAC without the single amino acid (an intermediate product NH2-PEG1-Dasa, Fig. S1A) or Dasa alone on cell viability of K562 cells for 48 h. […] Moreover, the ability of Arg-PEG1-Dasa–mediated degradation of BCR–ABL was mitigated by cotreatment with excess Dasa or NH2-PEG1-Dasa in the competition assay (Fig. 2F). One advantage of PROTACs versus traditional inhibitors is that only the transient drug–target interaction is needed for its target suppression.
as §4, with “Subsequently, the membranes were probed with ECL reagent (Millipore), and proteins were visualized by a Tanon-5200 Automatic Chemiluminescence Imaging Analysis System (Tanon).” left out

[9] = system: glutathione-S-transferase-BCR–ABL; test: Ubiquitination assay of GST-BCR–ABL in HEK293T cells (denaturing IP); format: cell-based, human; conditions: HEK293T cells coexpressing GST-BCR–ABL and myc-Ub, 48 h
Description: To determine the degradation pathway of BCR–ABL induced by PROTAC, we added lysosome acidification inhibitor chloroquine or proteasome inhibitor MG132 into Arg-PEG1-Dasa–treated K562 cells. […] To ascertain that Arg-PEG1-Dasa induced BCR–ABL turnover, we monitored the degradation kinetics of BCR–ABL with or without the PROTAC treatment. K562 cells were treated with cycloheximide to block protein synthesis and sampled at various time points for BCR–ABL levels. […] To further evaluate the involvement of the proteasome in PROTAC-induced degradation, we also added the proteasome inhibitor MG132 in the reaction. […] We next sought to investigate the Arg-PEG1-Dasa–induced ubiquitination of BCR–ABL.
Ubiquitination of BCR–ABL was detected using denatured immunoprecipitation. Cells were lysed in SDS-denaturing buffer (50 mM Tris–HCl [pH 7.4], 150 mM NaCl, 1% NP-40, 1% SDS, and 0.5% sodium deoxycholate) and boiled for 10 min. Cell lysates were then diluted 10-fold in native lysis buffer (50 mM Tris–HCl [pH 7.4], 150 mM NaCl, 1% NP-40, and 0.5% sodium deoxycholate). After centrifugation at 15,000 rpm for 10 min, the supernatants were immunoprecipitated using glutathione-Sepharose 4B beads (GE Healthcare) and incubated for 2 h at 4 °C. Beads were then washed five times using the native lysis buffer. […]

SMILES	Dmax at 0.005 µM [4] [%]	time at which BCR–ABL reduction appears [5] [h]	DC50 ([5]; 48 h)	IC50 [7] [nM]	also measured
Cc1nc(Nc2ncc(C(=O)Nc3c(C)cccc3Cl)s2)cc(N2CCN(CCOC(=O)CCOCCNC(=O)C(N)CCCNC(=N)N)CC2)n1 (stereo not shown) [Arg-PEG1-Dasa]	98.8	48	0.85 nM and 0.849 nM	0.359	BCR–ABL protein level in tumor [1]: significantly downregulated; body weight / tolerability ([2]; nude mice, 10 mg/kg i.p. every other day, 10 doses): did not significantly alter the body weight; also recorded: without overt drug toxicity; cell growth after drug removal [3]: sustained growth inhibition; BCR–ABL protein level after drug withdrawal ([5]; 1 nM 2 days, washout, compound-free medium): remained markedly diminished; BCR–ABL degradation kinetics (cycloheximide chase) ([5]; 2.5 nM for 32 h, then cycloheximide): quickly reduced; DC50 ([5]; 48 h, listed as Arg-based PROTAC): ~0.85 nM; BCR–ABL degradation in combination with Lys-, Leu-, or Phe-PEG1-Dasa ([5]; Arg-PEG1-Dasa mixed with varying doses of second PROTAC): not further enhanced; tumor growth ([6]; 10 mg/kg): dramatically impeded tumor growth; also recorded: does not exhibit better antitumor effects than Dasa; also recorded: robust antitumor effects; pSTAT5 / STAT5 phosphorylation after drug withdrawal [8]: remained markedly diminished; ubiquitination of immunoprecipitated BCR–ABL [9]: displayed the ubiquitination of immunoprecipitated BCR–ABL
Cc1nc(Nc2ncc(C(=O)Nc3c(C)cccc3Cl)s2)cc(N2CCN(CCOC(=O)CCOCCOCCOCCNC(=O)C(N)CCCNC(=N)N)CC2)n1 (stereo not shown) [Arg-PEG3-Dasa]	–	–	–	0.48	–
Cc1nc(Nc2ncc(C(=O)Nc3c(C)cccc3Cl)s2)cc(N2CCN(CCOC(=O)CCOCCOCCOCCOCCNC(=O)C(N)CCCNC(=N)N)CC2)n1 (stereo not shown) [Arg-PEG4-Dasa]	–	–	–	0.524	–
Cc1nc(Nc2ncc(C(=O)Nc3c(C)cccc3Cl)s2)cc(N2CCN(CCO)CC2)n1 [Dasa, dasatinib, reference compound]	–	–	–	–	body weight / tolerability ([2]; mouse, in vivo, ip, 10 mg/kg): without significant loss of body weight; cell growth after drug removal [3]: gradually resumed; also recorded: rapid recovery; tumor growth [6]: potent tumor growth inhibition; pSTAT5 / STAT5 phosphorylation after drug withdrawal [8]: gradually recovered
Cc1nc(Nc2ncc(C(=O)Nc3c(C)cccc3Cl)s2)cc(N2CCN(CCOC(=O)CCOCCNC(=O)[C@@H](N)CC(C)C)CC2)n1 [Leu-PEG1-Dasa]	91.2	12	0.479 nM	0.22	DC50 ([5]; 48 h, listed as Leu-based PROTAC): 0.48 nM
CC(C)C[C@@H](C=O)NC(=O)[C@H](CC(C)C)NC(=O)[C@H](CC(C)C)NC(=O)OCc1ccccc1 [MG132, reference compound] (Cbz-Leu-Leu-Leu-aldehyde)	–	–	–	–	effect on Arg-PEG1-Dasa–mediated degradation of BCR–ABL ([5]; MG132 10 μM or chloroquine 25 μM with Arg-PEG1-Dasa 1 nM, 48 h): blocked

The next lines start with results.

Dmax at 0.005 µM [4] [%]	time at which BCR–ABL reduction appears [5] [h]	DC50 ([5]; 48 h)	IC50 [7] [nM]	SMILES	also measured
–	–	–	0.53	Cc1nc(Nc2ncc(C(=O)Nc3c(C)cccc3Cl)s2)cc(N2CCN(CCOC(=O)CCOCCOCCNC(=O)C(N)CCCNC(=N)N)CC2)n1 (stereo not shown) [Arg-PEG2-Dasa]	–
99.1	48	0.981 nM	0.457	Cc1nc(Nc2ncc(C(=O)Nc3c(C)cccc3Cl)s2)cc(N2CCN(CCOC(=O)CCOCCNC(=O)[C@@H](N)CCCCN)CC2)n1 [Lys-PEG1-Dasa]	DC50 ([5]; 48 h, listed as Lys-based PROTAC): 0.98 nM
81	36	1.56 nM	0.294	Cc1nc(Nc2ncc(C(=O)Nc3c(C)cccc3Cl)s2)cc(N2CCN(CCOC(=O)CCOCCNC(=O)[C@@H](N)Cc3ccccc3)CC2)n1 [Phe-PEG1-Dasa]	DC50 ([5]; 48 h, listed as Phe-based PROTAC): 1.56 nM
